# Source: patent US20220401564A1 (DANA-FARBER CANCER INSTITUTE, INC., priority 2019, published 2022)
# Tests used:
# Type in all cases: biochemical
# HDAC4 = target: T1, HDAC4 (Homo sapiens, UniProt P56524); test: HDAC enzymatic assay (Reaction Biology), Class 2A substrate; settings: 10-dose response curve; read-out: Compound IC50 (M), HDAC4
# T1 construct: purchased Reaction Biology
# Procedure: (§1) Compounds 2 and 9 were tested in an enzymatic assay from Reaction Biology® against HDAC isoforms.
# (§2) Base Reaction buffer: 50 mM Tris-HCl, pH8.0, 137 mM NaCl, 2.7 mM KCl, and 1 mM MgCl2. Add fresh: 1 mg/ml BSA, 1% DMSO
# (§3) Class 2A Substrate (HDAC4, HDAC5, HDAC7, and HDAC9): Boc-Lys(trifluoroacetyl)-AMC
# (§4) 1. Delivered 2X enzyme in wells of reaction plate except in the control wells and added buffer to control wells. 2. Delivered compounds in 100% DMSO into the enzyme mixture by Acoustic technology (Echo550; nanoliter range). Spin down and pre-incubation. 3. Delivered 2X Substrate Mixture (Fluorogenic HDAC Substrate and co-factor if applicable) in all reaction wells to initiate the reaction. Spin and shake. 4. Incubated for 30 min for Class 2A, 1 h for HDAC1, 2, 3, and 6, and 2 h for the rest of HDAC isoforms and SIRTs at 30° C. with seal.
# (§5) 5. Added Developer with Trichostatin A (or Nicotinamide for SIRTs) to stop the reaction and to generate fluorescent color. 6. The fluorescence that was generated was detected with excitation (Ex) at […] and emission (Em) at 460 nM by the EnVision Multilabel Plate Reader (PerkinElmer®, Santa Clara, Calif., USA).
# (§6) IC50 values were derived from a 10-dose response curve. As shown in Tables 1-2, the addition of a linker and CRBN targeting group altered the isoform selectivity of the SAHA-based degrader compounds.
# HDAC9 = target: T2, HDAC9 (Homo sapiens, UniProt Q9UKV0); test: as above; settings: 10-dose response curve; read-out: Compound IC50 (M), HDAC9
# T2 construct: purchased Reaction Biology
# T2 sequence (Q9UKV0 whole entry): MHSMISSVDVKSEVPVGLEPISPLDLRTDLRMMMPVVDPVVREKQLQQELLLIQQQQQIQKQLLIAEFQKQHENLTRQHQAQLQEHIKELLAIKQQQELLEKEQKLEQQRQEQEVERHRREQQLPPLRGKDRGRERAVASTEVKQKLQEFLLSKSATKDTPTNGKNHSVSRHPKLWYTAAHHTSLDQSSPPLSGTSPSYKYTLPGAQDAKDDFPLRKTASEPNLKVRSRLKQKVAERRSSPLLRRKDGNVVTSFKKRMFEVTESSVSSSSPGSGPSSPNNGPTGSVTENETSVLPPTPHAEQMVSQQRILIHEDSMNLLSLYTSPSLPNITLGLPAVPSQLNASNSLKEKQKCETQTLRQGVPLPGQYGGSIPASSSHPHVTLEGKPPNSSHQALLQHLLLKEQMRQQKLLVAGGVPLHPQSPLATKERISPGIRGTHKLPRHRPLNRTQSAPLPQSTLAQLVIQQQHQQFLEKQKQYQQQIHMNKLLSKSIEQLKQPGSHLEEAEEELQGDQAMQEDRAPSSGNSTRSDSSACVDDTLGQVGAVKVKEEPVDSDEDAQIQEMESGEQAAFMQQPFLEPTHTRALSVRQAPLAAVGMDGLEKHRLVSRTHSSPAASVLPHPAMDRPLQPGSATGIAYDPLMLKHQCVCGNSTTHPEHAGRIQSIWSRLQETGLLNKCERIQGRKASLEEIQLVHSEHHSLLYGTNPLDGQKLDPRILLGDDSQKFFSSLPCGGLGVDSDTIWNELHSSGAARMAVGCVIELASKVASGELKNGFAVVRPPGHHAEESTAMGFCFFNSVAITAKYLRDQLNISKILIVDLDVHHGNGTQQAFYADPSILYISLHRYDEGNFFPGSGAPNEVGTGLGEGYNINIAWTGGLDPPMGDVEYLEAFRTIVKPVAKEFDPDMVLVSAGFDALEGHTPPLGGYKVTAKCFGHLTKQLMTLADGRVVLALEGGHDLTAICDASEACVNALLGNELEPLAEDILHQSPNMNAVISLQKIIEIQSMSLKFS
# Procedure: as §1, §2, §3, §4, §5, §6
# HDAC5 = target: T3, HDAC5 (Homo sapiens, UniProt Q9UQL6); test: as above; settings: 10-dose response curve; read-out: Compound IC50 (M), HDAC5
# T3 construct: purchased Reaction Biology
# T3 sequence (Q9UQL6 whole entry): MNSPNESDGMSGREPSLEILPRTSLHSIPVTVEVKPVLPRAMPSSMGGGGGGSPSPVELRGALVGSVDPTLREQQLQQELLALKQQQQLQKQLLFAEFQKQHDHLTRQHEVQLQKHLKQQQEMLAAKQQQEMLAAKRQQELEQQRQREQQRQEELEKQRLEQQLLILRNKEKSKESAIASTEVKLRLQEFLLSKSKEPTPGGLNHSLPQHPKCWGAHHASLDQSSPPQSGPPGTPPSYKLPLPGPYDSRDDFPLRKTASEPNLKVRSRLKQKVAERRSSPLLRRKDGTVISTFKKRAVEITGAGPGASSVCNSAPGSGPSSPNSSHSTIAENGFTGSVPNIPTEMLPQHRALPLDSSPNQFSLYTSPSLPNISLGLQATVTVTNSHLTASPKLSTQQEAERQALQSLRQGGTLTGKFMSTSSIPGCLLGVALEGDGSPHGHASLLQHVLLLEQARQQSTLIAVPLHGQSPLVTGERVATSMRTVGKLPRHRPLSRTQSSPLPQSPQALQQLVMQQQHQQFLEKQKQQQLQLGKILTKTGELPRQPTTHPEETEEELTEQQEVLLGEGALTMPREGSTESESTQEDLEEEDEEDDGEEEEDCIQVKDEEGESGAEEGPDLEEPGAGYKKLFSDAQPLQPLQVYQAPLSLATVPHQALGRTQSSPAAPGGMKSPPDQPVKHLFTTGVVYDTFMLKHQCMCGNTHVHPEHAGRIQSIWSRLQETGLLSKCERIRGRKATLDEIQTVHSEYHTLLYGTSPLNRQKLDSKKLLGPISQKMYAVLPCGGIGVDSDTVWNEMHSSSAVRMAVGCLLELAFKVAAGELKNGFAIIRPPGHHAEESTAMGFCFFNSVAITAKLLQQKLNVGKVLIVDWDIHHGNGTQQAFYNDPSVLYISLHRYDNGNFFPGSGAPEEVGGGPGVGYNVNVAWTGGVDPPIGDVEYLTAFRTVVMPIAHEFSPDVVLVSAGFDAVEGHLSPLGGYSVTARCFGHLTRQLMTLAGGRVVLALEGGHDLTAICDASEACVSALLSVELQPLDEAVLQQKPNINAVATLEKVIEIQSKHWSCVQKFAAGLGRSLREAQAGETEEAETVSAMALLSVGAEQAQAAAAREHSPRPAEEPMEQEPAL
# Procedure: as §1, §2, §3, §4, §5, §6
# HDAC7 = target: T4, HDAC7 (Homo sapiens, UniProt Q8WUI4); test: as above; settings: 10-dose response curve; read-out: Compound IC50 (M), HDAC7
# T4 construct: purchased Reaction Biology
# T4 sequence (Q8WUI4 1-952): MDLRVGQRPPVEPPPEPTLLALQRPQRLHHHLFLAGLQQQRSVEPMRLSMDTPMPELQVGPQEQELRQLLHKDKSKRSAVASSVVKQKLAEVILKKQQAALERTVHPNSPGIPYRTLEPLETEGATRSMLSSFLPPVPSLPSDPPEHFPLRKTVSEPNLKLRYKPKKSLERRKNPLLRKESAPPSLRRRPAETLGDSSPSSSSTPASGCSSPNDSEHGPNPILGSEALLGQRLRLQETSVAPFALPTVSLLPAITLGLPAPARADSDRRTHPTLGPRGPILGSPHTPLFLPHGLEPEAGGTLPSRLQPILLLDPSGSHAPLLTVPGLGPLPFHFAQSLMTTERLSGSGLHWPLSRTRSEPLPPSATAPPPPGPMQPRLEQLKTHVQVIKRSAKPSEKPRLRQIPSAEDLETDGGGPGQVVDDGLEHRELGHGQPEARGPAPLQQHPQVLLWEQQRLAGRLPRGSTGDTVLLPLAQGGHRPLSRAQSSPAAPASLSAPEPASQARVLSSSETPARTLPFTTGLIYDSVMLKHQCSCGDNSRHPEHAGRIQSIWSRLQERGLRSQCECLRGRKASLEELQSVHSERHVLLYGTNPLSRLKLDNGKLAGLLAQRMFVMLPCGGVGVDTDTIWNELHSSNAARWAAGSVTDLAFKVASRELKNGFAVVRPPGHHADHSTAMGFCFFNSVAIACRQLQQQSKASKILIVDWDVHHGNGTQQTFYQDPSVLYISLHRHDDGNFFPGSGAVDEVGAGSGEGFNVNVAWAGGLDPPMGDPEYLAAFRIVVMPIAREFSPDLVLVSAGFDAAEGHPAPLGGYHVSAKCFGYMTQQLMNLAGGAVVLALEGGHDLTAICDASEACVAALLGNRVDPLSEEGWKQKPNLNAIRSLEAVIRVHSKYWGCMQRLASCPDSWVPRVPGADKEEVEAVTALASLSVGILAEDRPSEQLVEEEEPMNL
# Procedure: as §1, §2, §3, §4, §5, §6
# HDAC8 = target: T5, HDAC8 (Homo sapiens, UniProt Q9BY41); test: HDAC enzymatic assay (Reaction Biology), HDAC8 substrate; design: purchased Reaction Biology
# T5 sequence (Q9BY41 1-377): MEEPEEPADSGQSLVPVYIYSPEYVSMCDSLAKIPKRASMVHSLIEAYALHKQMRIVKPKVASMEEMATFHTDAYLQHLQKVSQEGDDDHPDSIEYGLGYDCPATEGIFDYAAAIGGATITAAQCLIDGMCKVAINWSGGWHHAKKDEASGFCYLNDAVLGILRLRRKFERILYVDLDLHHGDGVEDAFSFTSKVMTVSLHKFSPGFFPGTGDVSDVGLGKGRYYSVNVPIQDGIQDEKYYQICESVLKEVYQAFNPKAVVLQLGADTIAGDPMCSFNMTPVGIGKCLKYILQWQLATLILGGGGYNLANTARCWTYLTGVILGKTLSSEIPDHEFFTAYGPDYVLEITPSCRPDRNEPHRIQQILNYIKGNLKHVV
# Procedure: as §1, §2
# (HDAC8 only substrate: 50 μM, Arg-His-Lys(Ac)-Lys(Ac))-AMC
# as §4, §5, §6
# T1 sequence (P56524 whole entry): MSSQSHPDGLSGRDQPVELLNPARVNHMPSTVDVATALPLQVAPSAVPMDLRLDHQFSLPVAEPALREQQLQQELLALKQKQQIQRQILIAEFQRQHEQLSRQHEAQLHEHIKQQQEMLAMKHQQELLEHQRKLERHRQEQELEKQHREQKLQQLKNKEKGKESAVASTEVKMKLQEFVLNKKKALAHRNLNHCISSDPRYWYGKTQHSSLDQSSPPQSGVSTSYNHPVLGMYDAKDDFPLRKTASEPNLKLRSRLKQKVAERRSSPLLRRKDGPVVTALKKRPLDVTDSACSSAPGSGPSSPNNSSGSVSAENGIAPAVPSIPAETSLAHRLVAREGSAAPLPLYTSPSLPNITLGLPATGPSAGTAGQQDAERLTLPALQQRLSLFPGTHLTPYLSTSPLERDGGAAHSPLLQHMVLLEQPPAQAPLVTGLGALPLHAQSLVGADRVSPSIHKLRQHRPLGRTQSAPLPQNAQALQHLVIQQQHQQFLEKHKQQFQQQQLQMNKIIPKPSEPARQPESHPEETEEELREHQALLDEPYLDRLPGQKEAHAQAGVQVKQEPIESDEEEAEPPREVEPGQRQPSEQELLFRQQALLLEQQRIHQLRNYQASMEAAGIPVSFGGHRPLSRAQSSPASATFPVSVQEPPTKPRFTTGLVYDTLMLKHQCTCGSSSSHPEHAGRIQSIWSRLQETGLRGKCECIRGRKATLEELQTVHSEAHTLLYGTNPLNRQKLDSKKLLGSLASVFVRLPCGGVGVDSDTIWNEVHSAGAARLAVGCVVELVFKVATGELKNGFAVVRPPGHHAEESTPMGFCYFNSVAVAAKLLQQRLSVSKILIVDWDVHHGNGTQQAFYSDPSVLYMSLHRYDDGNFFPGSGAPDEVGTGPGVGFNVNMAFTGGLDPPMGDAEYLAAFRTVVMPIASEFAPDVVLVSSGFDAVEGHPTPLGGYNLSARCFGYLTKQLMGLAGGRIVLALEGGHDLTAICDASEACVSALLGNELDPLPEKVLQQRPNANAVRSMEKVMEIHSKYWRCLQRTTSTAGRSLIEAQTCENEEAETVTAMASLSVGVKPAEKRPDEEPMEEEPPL
structure (smiles),measurement,setting,value
"Cc1ncsc1-c1ccc([C@H](C)NC(=O)[C@@H]2C[C@@H](O)CN2C(=O)[C@@H](NC(=O)CCOCCOCCN(CCc2c[nH]c3ccccc23)Cc2ccc(/C=C/C(=O)NO)cc2)C(C)(C)C)cc1 [Compound 2, (2S,4R)-1-((S)-14-(tert-butyl)-3-(4-((E)-3-(hydroxyamino)-3-oxoprop-1-en-1-yl)benzyl)-1-(1H-indol-3-yl)-12-oxo-6,9-dioxa-3,13-diazapentadecan-15-oyl)-4-hydroxy-N—((S)-1-(4-(4-methylthiazol-5-yl)phenyl)ethyl)pyrrolidine-2-carboxamide]",IC50,HDAC4,1.31e-05 M
same,IC50,HDAC9,> 2e-05 M
same,IC50,HDAC5,2.69e-06 M
same,IC50,HDAC7,1.71e-05 M
same,inhibition of HDAC8 deacetylase activity in vitro (in words),HDAC8,Moderate inhibition
same,IC50,"HDAC8; 10-dose response curve, read-out: Compound IC50 (M), HDAC8",1.16e-06 M
